Legend:
S. aureus ATCC 25923 [1] = test: Airyscan confocal super-resolution imaging, comparison of probes (Fig. S2C); assay type: cell-based; details: 2 and 16 µg/mL, 30 min 37 °C
Procedure: Figure S2. Comparison of probe 7 and probe 9 to commercial fluorescent probes using flow cytometry
and microscopy. […]
Van-BODIPY (V34850, Invitrogen™) in S. aureus ATCC 25923. Bacteria were stained with probes (2 and 16
µg/mL, Green) for 30 min at 37 °C. Arrows indicate cells with Van-BODIPY entering cytoplasm. Scale bar = 1 µm.

E. coli ATCC25922 = test: Flow cytometry comparison with commercial fluorescent probes (Fig. S2B); assay type: cell-based; details: 2 and 16 µg/mL, 30 min 37 °C
Source text: (§1) Figure S2. Comparison of probe 7 and probe 9 to commercial fluorescent probes using flow cytometry and microscopy. Labelling of S. aureus ATCC 25923 (A) and E. coli ATCC25922 (B) with vancomycin probe 7, probe 9, Van-FITC (SBR00028, Sigma-Aldrich), and Van-BODIPY (V34850, Invitrogen™) measured using flow […]
(§2) flow cytometer. The data are presented as the mean ± SEM (n = 3). GeoMean: Geometric Mean. (C) Airyscan confocal super-resolution imaging of vancomycin probe 7, probe 9, Van-FITC (SBR00028, Sigma-Aldrich), and Van-BODIPY (V34850, Invitrogen™) in S. aureus ATCC 25923. Bacteria were stained with probes (2 and 16 µg/mL, Green) for 30 min at 37 °C. Arrows indicate cells with Van-BODIPY entering cytoplasm. Scale bar = 1 µm.
(§3) (1 picture or pasted object on this page, not shown here)

S. aureus ATCC 25923 [2] = test: Flow cytometry comparison with commercial fluorescent probes (Fig. S2A); assay type: cell-based; details: 2 and 16 µg/mL, 30 min 37 °C
Source text: as §1, §2, §3

E. coli = test: microbe, parasite or virus in culture; details: 3 h
Procedure: Bacteria were obtained from the American Type Culture Collection (ATCC; Manassas, VA, USA), Merck Sharp & Dohme (Kenilworth, NJ), the Coli Genetic Stock Center (CGSC, Yale University), Network on Antimicrobial Resistance in Staphylococcus aureus (NARSA) via BEI Resources (www.beiresources.org) and independent academic clinical isolate and mutant collections. All species used in this study were described fully in Table S4. Bacteria were cultured in Cation-Adjusted Mueller-Hinton Broth (CAMHB, Bacto Laboratories, Cat No. 212322) or Muller Hinton Broth (MHB, Bacto Laboratories, Cat No. 211443) at 37 °C overnight. A sample of each culture was then diluted 50-fold in MHB and incubated at 37 °C for 1.5–3 h. The stock solutions of vancomycin probes 7, 8 and 9 were prepared at 1.28 mg/mL in sterile water. The compounds were serially diluted two-fold across the wells, with concentrations ranging from 0.06 µg/mL to 128 µg/mL, plated in duplicate. […]

S. aureus = details: tested S. aureus strains (Table S3); dissolved in DMSO
Procedure: Bacteria were obtained from the American Type Culture Collection (ATCC; Manassas, VA, USA), Merck Sharp & Dohme (Kenilworth, NJ), the Coli Genetic Stock Center (CGSC, Yale University), Network on Antimicrobial Resistance in Staphylococcus aureus (NARSA) via BEI Resources (www.beiresources.org) and independent academic clinical isolate and mutant collections. All species used in this study were described fully in Table S4. Bacteria were cultured in Cation-Adjusted Mueller-Hinton Broth (CAMHB, Bacto Laboratories, Cat No. 212322) or Muller Hinton Broth (MHB, Bacto Laboratories, Cat No. 211443) at 37 °C overnight. A sample of each culture was then diluted 50-fold in MHB and incubated at 37 °C for 1.5–3 h. […] The compounds were serially diluted two-fold across the wells, with concentrations ranging from 0.06 µg/mL to 128 µg/mL, plated in duplicate. The resultant mid-log phase culture was diluted to 1 × 10^6 CFU/mL, then 50 µL was added to each well of the compound-containing 96-well plates (Corning, Cat. No 3641, non-binding surface (NBS) plates), giving a cell density of 5 × 10^5 CFU/mL, and a final compound concentration range of 0.03 µg/mL to 64 µg/mL.

| SMILES | peptidoglycan labelling pattern (Airyscan imaging, in words) (S. aureus ATCC 25923 [1]) | staining of E. coli (flow cytometry, in words) (E. coli ATCC25922) | staining of S. aureus (flow cytometry, in words) (S. aureus ATCC 25923 [2]) | MIC (E. coli) [µg/mL] | antimicrobial activity at the highest concentration tested (S. aureus) [µg/mL] |
| --- | --- | --- | --- | --- | --- |
| CN[C@H](CC(C)C)C(=O)N[C@H]1C(=O)N[C@@H](CC(N)=O)C(=O)N[C@H]2C(=O)N[C@H]3C(=O)N[C@H](C(=O)N[C@H](C(=O)O)c4cc(O)cc(O)c4-c4cc3ccc4O)[C@H](O)c3ccc(c(Cl)c3)Oc3cc2cc(c3O[C@@H]2O[C@H](CO)[C@@H](O)[C@H](O)[C@H]2O[C@H]2C[C@](C)(NC(=O)CCc3ccc4n3[B-](F)(F)[N+]3=C(C)C=C(C)C3=C4)[C@H](O)[C@H](C)O2)Oc2ccc(cc2Cl)[C@H]1O [Van-BODIPY] | label the cells more uniformly | stained a larger population of cells than the other probes | greatest intensity | > 64 | – |
| CC(C)C[C@H](C(=O)N[C@H]1C(=O)N[C@@H](CC(N)=O)C(=O)N[C@H]2C(=O)N[C@H]3C(=O)N[C@H](C(=O)N[C@H](C(=O)O)c4cc(O)cc(O)c4-c4cc3ccc4O)[C@H](O)c3ccc(c(Cl)c3)Oc3cc2cc(c3O[C@@H]2O[C@H](CO)[C@@H](O)[C@H](O)[C@H]2O[C@H]2C[C@](C)(N)[C@H](O)[C@H](C)O2)Oc2ccc(cc2Cl)[C@H]1O)N(C)C(=S)Nc1ccc2c(c1)C(=O)OC21c2ccc(O)cc2Oc2cc(O)ccc21 [Van-FITC] | no fluorescence signal observed at 2 µg/mL | did not show much staining | the worst | > 64 | > 32 |

Reference: publication PMC10102067, “Synthesis of vancomycin fluorescent probes that retain antimicrobial activity, identify Gram-positive bacteria, and detect Gram-negative outer membrane damage” (Communications Biology, 2023)
